# Test results reported in US20140134690A1, “MICROBES AND METHODS FOR PRODUCING 1-PROPANOL” (University of Georgia Research Foundation, Inc., priority 2012, published 2014).
# Legend:
# Test in all cases: Methylglyoxal synthase assay
# [1] = target: T1, Clostridium acetobutylicum (ATCC 824) methylglyoxal synthase (mgsA), wild type (Clostridium acetobutylicum, UniProt Q97IN6); format: biochemical, C. acetobutylicum; conditions: substrate dihydroxyacetone phosphate 0.15-1.5 mM; crude extract; pH 7.0; 30° C.
# T1 sequence (Q97IN6 1-145): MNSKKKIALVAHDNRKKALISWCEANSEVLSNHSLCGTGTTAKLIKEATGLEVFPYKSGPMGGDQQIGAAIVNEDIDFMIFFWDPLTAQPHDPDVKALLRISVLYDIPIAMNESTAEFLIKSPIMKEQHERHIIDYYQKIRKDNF
# Text: (§1) 1,2-Propanediol pathway branches from glycolysis and competes for the intermediate dihydroxyacetone phosphate, with the glycolytic pathway. […] We amplified the mgsA genes from the microorganisms: C. acetobutylicum (ATCC#824), B. subtilis 168, C. difficile R20291, E. coli MG1655, T. thermophilus HB27, K. pneumoniae MGH78578, P. fluorescens Pf-5, and R. eutropha H16 respectively. These genes were cloned and expressed in wild type E. coli BW25113 using eight plasmids pRJ1-pRJ8. Each gene was under the control of the IPTG-inducible pLlacO1 promoter. Using dihydroxyacetone-phosphate as the substrate, we successfully detected the functional expression of all mgsA genes in vitro, where the specific activities varied from 0.0052 U/mg to 0.1242 U/mg (Table 1). […] Without the over-expression of mgsA gene, we also detected the native expression of E. coli mgsA, which gave a specific activity of only 0.0008 U/mg, much lower than that of any over-expression.
# (§2) Using the primers listed in Table 5, the mgsA genes were PCR amplified from the genomic DNA of C. acetobutylicum (ATCC824), B. subtilis 168, Clostridium difficile R20291, E. coli MG1655, Thermus thermophilus HB27, K. pneumoniae MGH78578, Pseudomonas fluorescens Pf-5, and Ralstonia eutropha H16 respectively. […]
# (§3) The assay was carried out using a two-step procedure. […] The samples were diluted 10 times before measuring the absorbance at 550 nm.
# [2] = target: T2, Bacillus subtilis 168 methylglyoxal synthase (mgsA), wild type (Bacillus subtilis, UniProt P42980); format: biochemical, B. subtilis
# T2 sequence (P42980 1-137): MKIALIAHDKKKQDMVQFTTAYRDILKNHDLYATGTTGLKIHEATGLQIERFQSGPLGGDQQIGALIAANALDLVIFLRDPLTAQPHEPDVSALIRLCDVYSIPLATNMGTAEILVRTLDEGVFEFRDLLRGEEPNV
# Text: as §1, §2, §3
# [3] = target: Clostridium difficile R20291 methylglyoxal synthase (mgsA), wild type (Clostridioides difficile, UniProt A0A9R0BJ64); format: biochemical, C. difficile; conditions: substrate dihydroxyacetone phosphate 0.15-1.5 mM; crude extract; pH 7.0; 30° C.
# Chain of Clostridium difficile R20291 methylglyoxal synthase (mgsA), wild type (A0A9R0BJ64 entry or part of it): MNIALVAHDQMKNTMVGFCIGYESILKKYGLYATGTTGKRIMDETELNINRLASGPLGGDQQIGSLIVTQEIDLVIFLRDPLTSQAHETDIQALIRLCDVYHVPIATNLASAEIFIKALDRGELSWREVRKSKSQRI
# Text: as §1, §2, §3
# [4] = target: E. coli MG1655 methylglyoxal synthase (mgsA), wild type (Escherichia coli, UniProt P0A731); format: biochemical; conditions: substrate dihydroxyacetone phosphate 0.15-1.5 mM; crude extract; pH 7.0; 30° C.
# Chain of E. coli MG1655 methylglyoxal synthase (mgsA), wild type (P0A731 whole entry): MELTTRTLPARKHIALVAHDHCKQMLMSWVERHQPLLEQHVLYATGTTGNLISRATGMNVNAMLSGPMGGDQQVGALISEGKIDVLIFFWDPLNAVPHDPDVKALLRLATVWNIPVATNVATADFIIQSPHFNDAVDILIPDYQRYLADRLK
# Text: as §1, §2, §3
# [5] = target: T3, Thermus thermophilus HB27 methylglyoxal synthase (mgsA), wild type (Thermus thermophilus, UniProt Q72HP3); format: biochemical, T. thermophilus; conditions: substrate dihydroxyacetone phosphate 0.15-1.5 mM; crude extract; pH 7.0; 30° C.
# T3 sequence (Q72HP3 1-126): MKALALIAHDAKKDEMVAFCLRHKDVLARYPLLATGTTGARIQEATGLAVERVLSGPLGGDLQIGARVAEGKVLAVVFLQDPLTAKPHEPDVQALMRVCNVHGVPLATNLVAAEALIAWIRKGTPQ
# Text: as §1, §2, §3
# [6] = target: Klebsiella pneumoniae MGH78578 methylglyoxal synthase (mgsA), wild type (Klebsiella pneumoniae, UniProt A6T757); format: biochemical, K. pneumoniae; conditions: substrate dihydroxyacetone phosphate 0.15-1.5 mM; crude extract; pH 7.0; 30° C.
# Chain of Klebsiella pneumoniae MGH78578 methylglyoxal synthase (mgsA), wild type (A6T757 6-157): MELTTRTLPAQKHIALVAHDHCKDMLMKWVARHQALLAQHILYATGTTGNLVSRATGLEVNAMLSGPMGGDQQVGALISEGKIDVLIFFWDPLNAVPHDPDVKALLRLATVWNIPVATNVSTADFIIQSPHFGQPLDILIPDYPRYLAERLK
# Text: as §1, §2, §3
# [7] = target: T4, Pseudomonas fluorescens Pf-5 methylglyoxal synthase (mgsA), wild type (Pseudomonas protegens, UniProt Q4K7S5); format: biochemical, P. fluorescens; conditions: substrate dihydroxyacetone phosphate 0.15-1.5 mM; crude extract; pH 7.0; 30° C.
# T4 sequence (Q4K7S5 1-154): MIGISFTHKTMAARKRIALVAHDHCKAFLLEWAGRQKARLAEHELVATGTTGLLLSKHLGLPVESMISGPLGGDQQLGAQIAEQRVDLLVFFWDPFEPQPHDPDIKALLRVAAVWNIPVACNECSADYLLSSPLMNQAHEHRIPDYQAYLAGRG
# Text: as §1, §2, §3
# [8] = target: T5, Ralstonia eutropha H16 methylglyoxal synthase (mgsA), wild type (Cupriavidus necator, UniProt Q0KD43); format: biochemical, R. eutropha; conditions: substrate dihydroxyacetone phosphate 0.15-1.5 mM; crude extract; pH 7.0; 30° C.
# T5 sequence (Q0KD43 1-132): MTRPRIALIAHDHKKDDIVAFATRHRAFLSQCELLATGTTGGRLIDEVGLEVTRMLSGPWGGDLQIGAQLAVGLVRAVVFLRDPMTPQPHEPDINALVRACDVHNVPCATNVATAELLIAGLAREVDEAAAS
# Text: as §1, §2, §3
smiles,measurement,setting,value
O=C(CO)COP(=O)(O)O [dihydroxyacetone phosphate],Specific Activity/Km,[1],0.0697 U/mg/mM
same,Specific Activity/Km,"[2]; substrate dihydroxyacetone phosphate 0.15-1.5 mM, crude extract, pH 7.0, 30° C.",0.1186 U/mg/mM
same,ratio of specific activity/Km,[2]; substrate dihydroxyacetone-phosphate,0.1186
same,Specific Activity/Km,[3],0.0415 U/mg/mM
same,Specific Activity/Km,[4],0.0876 U/mg/mM
same,Specific Activity/Km,[5],0.0076 U/mg/mM
same,Specific Activity/Km,[6],0.0058 U/mg/mM
same,Specific Activity/Km,[7],0.0085 U/mg/mM
same,Specific Activity/Km,[8],0.0074 U/mg/mM
